Where a SMILES comes first, the peptide text is derived from it. Bridges are numbered along the chain shown (N, C = ends).
Experiments:
[1] = test system: alpha-1 type I collagen (COL1A1) mRNA in primary murine skin fibroblasts; experiment: COL1A1 mRNA quantification by RT-PCR; assay type: cell-based, mouse; settings: P12-3A 100 μM, 4 d, confluent monolayers
Procedure: FIG. 4A-F. Effects of P12-3A on cultured skin cells. A, Insulin concentrations as a function of time in logarithmically growing primary murine skin fibroblasts in the absence or presence of P12-3A (100 μM). […] Data are mean±SEM of 4 independent replications. *P<0.05, **P<0.01. B, Proliferation of cells in the absence or presence of P12-3A (100 μM). […] C,D,E, P12-3A (100 μM) potentiates insulin-induced collagen production in skin fibroblasts. Collagen production was assessed by COL1A1 mRNA levels (C), levels of hydroxyproline secreted into the medium (D), and cell-associated mature alpha-1 type I collagen levels detected by Western blotting (E). […] Migration of HaCaT cells 48 h after induction of a scratch wound in the presence of the indicated quantities of insulin and/or P12-3A (100 μM). […]
Insulin promotes wound healing and overall skin health by affecting a number of processes, including cell proliferation (2,3), cell migration (5,6), and the production and secretion of ECM components, particularly type I collagen (7-13). We therefore assessed the ability of P12-3A to influence these processes in cultured skin fibroblasts and keratinocytes. To that end, primary mouse skin fibroblasts were grown for 4 d in multiple concentrations of insulin in the presence or absence of P12-3A, and insulin concentration over time was monitored by ELISA. […]

IDE = target: T1, IDE (Homo sapiens, UniProt P14735); experiment: IDE protease activity assay with FRET1 substrate; assay type: biochemical; settings: Ki converted from IC50 with the Cheng-Prusoff equation
T1 construct: made in house; host or cells: bacteria
T1 sequence (P14735 1-1019): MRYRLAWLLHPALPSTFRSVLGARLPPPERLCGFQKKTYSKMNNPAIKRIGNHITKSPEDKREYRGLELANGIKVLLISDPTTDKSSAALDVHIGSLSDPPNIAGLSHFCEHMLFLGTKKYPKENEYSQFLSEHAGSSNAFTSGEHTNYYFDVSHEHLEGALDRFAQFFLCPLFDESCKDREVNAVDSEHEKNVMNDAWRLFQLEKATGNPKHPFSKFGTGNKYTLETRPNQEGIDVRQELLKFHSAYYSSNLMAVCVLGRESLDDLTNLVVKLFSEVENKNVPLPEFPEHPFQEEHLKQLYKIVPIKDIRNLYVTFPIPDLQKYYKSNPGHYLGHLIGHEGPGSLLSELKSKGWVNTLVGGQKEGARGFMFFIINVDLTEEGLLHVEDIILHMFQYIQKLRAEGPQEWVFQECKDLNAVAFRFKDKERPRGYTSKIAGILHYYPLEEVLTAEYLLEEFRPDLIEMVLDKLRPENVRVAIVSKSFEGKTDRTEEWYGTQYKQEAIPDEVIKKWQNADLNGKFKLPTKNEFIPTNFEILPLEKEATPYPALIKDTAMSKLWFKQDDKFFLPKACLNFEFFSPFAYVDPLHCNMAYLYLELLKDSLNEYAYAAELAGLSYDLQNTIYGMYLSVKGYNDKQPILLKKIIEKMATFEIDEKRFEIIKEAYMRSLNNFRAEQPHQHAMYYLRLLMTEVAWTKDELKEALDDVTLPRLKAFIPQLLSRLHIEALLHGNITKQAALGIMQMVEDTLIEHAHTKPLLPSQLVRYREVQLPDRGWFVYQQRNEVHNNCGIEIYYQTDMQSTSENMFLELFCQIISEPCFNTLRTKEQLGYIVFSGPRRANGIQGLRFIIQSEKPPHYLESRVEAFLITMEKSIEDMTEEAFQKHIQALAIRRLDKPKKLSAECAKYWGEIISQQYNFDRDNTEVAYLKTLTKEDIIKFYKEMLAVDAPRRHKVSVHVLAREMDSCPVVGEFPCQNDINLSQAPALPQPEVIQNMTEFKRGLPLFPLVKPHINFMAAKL

Q: What does the source list for `CC(C)C[C@H](NC(=O)[C@H](CO)NC(=O)[C@@H](N)CCC(N)=O)C(=O)N1CCC[C@H]1C(=O)N[C@@H](Cc1c[nH]c2ccccc12)C(=O)N[C@H]1CSSC[C@@H](C(=O)N[C@H](C(=O)N[C@H](C(N)=O)[C@@H](C)O)C(C)C)NC(=O)[C@H](Cc2c[nH]cn2)NC(=O)[C@@H]2CCCN2C(=O)[C@H](Cc2ccc(O)cc2)NC1=O` [Peptide P12-3A] (H-QSLPWCYPHCVT-NH2; disulfide 6-10 (inferred))?
A: COL1A1 mRNA levels [1]: ~2.6 times the levels of untreated cells; Ki (IDE): 10 ± 0.4 µM
